Measured values as given in article doi:10.1101/2024.11.24.625011v1 (biorxiv, 2024).

Target: T1, RetSDISMED2 (PaRetSp); RetS (residues 41-185) (Pseudomonas aeruginosa, UniProt Q9HUV7)
T1 sequence (Q9HUV7 41-185): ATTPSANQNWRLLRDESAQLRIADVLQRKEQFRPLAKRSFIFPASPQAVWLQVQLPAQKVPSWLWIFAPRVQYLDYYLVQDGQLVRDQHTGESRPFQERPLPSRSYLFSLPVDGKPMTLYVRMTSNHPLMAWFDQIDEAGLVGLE
Test: isothermal titration calorimetry
Assay type: binding

Row | SMILES | Kd [nM]
1 | CCCCc1oc2ccc(NS(C)(=O)=O)cc2c1C(=O)c1ccc(OCCCN(CCCC)CCCC)cc1 [dronedarone] | ~3600
2 | NC[C@H](O)c1ccc(O)c(O)c1 [norepinephrine] | ~1000
